Measurements reported in BigSolDB 2.1.

CCCCCOC(=O)Nc1nc(=O)n([C@@H]2O[C@H](C)[C@@H](O)[C@H]2O)cc1F
Settings	solubility (mole fraction)
in 2-ethylhexanol, 278.02 K	0.0011
in 2-ethylhexanol, 282.93 K	0.0013
in 2-ethylhexanol, 287.88 K	0.0019
in 2-ethylhexanol, 292.57 K	0.0027
in 2-ethylhexanol, 297.38 K	0.0036
in 2-ethylhexanol, 302.24 K	0.005
in 2-ethylhexanol, 307.13 K	0.0069
in 2-ethylhexanol, 312.04 K	0.0096
in 2-ethylhexanol, 316.73 K	0.0125
in 2-ethylhexanol, 321.76 K	0.0173
in 2-octanol, 278.04 K	0.001
in 2-octanol, 282.95 K	0.0014
in 2-octanol, 287.9 K	0.0018
in 2-octanol, 292.55 K	0.0025
in 2-octanol, 298.45 K	0.0036
in 2-octanol, 302.3 K	0.0047
in 2-octanol, 307.15 K	0.0064
in 2-octanol, 312.05 K	0.0087
in 2-octanol, 317.75 K	0.0116
in 2-octanol, 322.2 K	0.0151
in ethanol, 278.25 K	0.0099
in ethanol, 282.86 K	0.0123
in ethanol, 287.85 K	0.017
in ethanol, 292.84 K	0.0247
in ethanol, 297.75 K	0.0353
in ethanol, 302.55 K	0.048
in ethanol, 307.25 K	0.0676
in ethanol, 312.14 K	0.0933
in ethanol, 317.35 K	0.127
in ethanol, 322.13 K	0.166
in ethylene glycol, 278.65 K	0.01
in ethylene glycol, 283.15 K	0.0125
in ethylene glycol, 287.95 K	0.017
in ethylene glycol, 293 K	0.021
in ethylene glycol, 297.95 K	0.0267
in ethylene glycol, 302.95 K	0.0348
in ethylene glycol, 307.65 K	0.0437
in ethylene glycol, 312.1 K	0.0539
in ethylene glycol, 316.85 K	0.0661
in ethylene glycol, 322.25 K	0.0877
in isobutanol, 278.26 K	0.0012
in isobutanol, 283.15 K	0.0018
in isobutanol, 288.1 K	0.0029
in isobutanol, 293.38 K	0.0046
in isobutanol, 298.02 K	0.007
in isobutanol, 302.85 K	0.0107
in isobutanol, 307.4 K	0.0156
in isobutanol, 312.25 K	0.0232
in isobutanol, 316.95 K	0.0336
in isobutanol, 321.95 K	0.0492
in isopentanol, 278.25 K	0.0027
in isopentanol, 282.97 K	0.0038
in isopentanol, 288.76 K	0.0057
in isopentanol, 292.64 K	0.0074
in isopentanol, 297.33 K	0.0102
in isopentanol, 302.27 K	0.0141
in isopentanol, 307.06 K	0.0193
in isopentanol, 312.04 K	0.0267
in isopentanol, 316.78 K	0.0361
in isopentanol, 321.47 K	0.0485
in isopropanol, 277.98 K	0.0011
in isopropanol, 283.49 K	0.0016
in isopropanol, 288.07 K	0.0024
in isopropanol, 293.16 K	0.0037
in isopropanol, 297.34 K	0.0053
in isopropanol, 302.29 K	0.0079
in isopropanol, 307.07 K	0.0115
in isopropanol, 312.14 K	0.017
in isopropanol, 316.88 K	0.0241
in isopropanol, 321.47 K	0.034
in n-butanol, 278.1 K	0.0021
in n-butanol, 283.03 K	0.003
in n-butanol, 288.02 K	0.0045
in n-butanol, 293.53 K	0.007
in n-butanol, 298 K	0.0106
in n-butanol, 303.15 K	0.016
in n-butanol, 308.25 K	0.0239
in n-butanol, 312.35 K	0.0351
in n-butanol, 317.4 K	0.051
in n-butanol, 322.49 K	0.077
in n-heptanol, 278 K	0.0018
in n-heptanol, 283.15 K	0.0025
in n-heptanol, 288.33 K	0.0036
in n-heptanol, 292.53 K	0.0047
in n-heptanol, 297.63 K	0.0065
in n-heptanol, 303.3 K	0.0092
in n-heptanol, 308.35 K	0.0126
in n-heptanol, 313.25 K	0.017
in n-heptanol, 318.05 K	0.0226
in n-heptanol, 322.85 K	0.0299
in n-hexanol, 278.1 K	0.0018
in n-hexanol, 284.33 K	0.0029
in n-hexanol, 287.97 K	0.0038
in n-hexanol, 293.85 K	0.006
in n-hexanol, 297.6 K	0.008
in n-hexanol, 303.55 K	0.0125
in n-hexanol, 308.55 K	0.0173
in n-hexanol, 313.15 K	0.0241
in n-hexanol, 317.75 K	0.0333
in n-hexanol, 322.25 K	0.0461
in n-octanol, 278.65 K	0.0022
in n-octanol, 283 K	0.003
in n-octanol, 287.98 K	0.004
in n-octanol, 292.95 K	0.0055
in n-octanol, 298.35 K	0.0076
in n-octanol, 302.94 K	0.01
in n-octanol, 307.5 K	0.0131
in n-octanol, 312.35 K	0.0173
in n-octanol, 317.05 K	0.0226
in n-octanol, 322.05 K	0.0307
in n-pentanol, 278.2 K	0.002
in n-pentanol, 282.97 K	0.0031
in n-pentanol, 288.26 K	0.0051
in n-pentanol, 292.64 K	0.0071
in n-pentanol, 297.33 K	0.0101
in n-pentanol, 302.27 K	0.0146
in n-pentanol, 307.06 K	0.0205
in n-pentanol, 312.04 K	0.0292
in n-pentanol, 316.78 K	0.0404
in n-pentanol, 321.47 K	0.0555
in n-propanol, 278 K	0.0024
in n-propanol, 283.06 K	0.0037
in n-propanol, 287.98 K	0.0055
in n-propanol, 292.87 K	0.0088
in n-propanol, 297.33 K	0.0132
in n-propanol, 302.29 K	0.0205
in n-propanol, 307.07 K	0.0309
in n-propanol, 312.14 K	0.0471
in n-propanol, 316.88 K	0.0687
in n-propanol, 321.47 K	0.0997
in sec-butanol, 278.15 K	0.001
in sec-butanol, 283.17 K	0.0016
in sec-butanol, 288.13 K	0.0026
in sec-butanol, 293.35 K	0.0043
in sec-butanol, 298.44 K	0.0065
in sec-butanol, 302.9 K	0.0093
in sec-butanol, 307.65 K	0.014
in sec-butanol, 312.44 K	0.0207
in sec-butanol, 317.25 K	0.0301
in sec-butanol, 321.9 K	0.0428
in tert-butanol, 299.65 K	0.0078
in tert-butanol, 302.75 K	0.0096
in tert-butanol, 307.43 K	0.0139
in tert-butanol, 312.2 K	0.0199
in tert-butanol, 317.04 K	0.0294
in tert-butanol, 321.65 K	0.0423
in water, 278.25 K	0.0009
in water, 283.2 K	0.001
in water, 288.3 K	0.001
in water, 293.25 K	0.0011
in water, 298.25 K	0.0012
in water, 302.8 K	0.0013
in water, 308 K	0.0014
in water, 312.95 K	0.0015
in water, 317.65 K	0.0016
in water, 322.75 K	0.0017
